Test results as given in US20220000941A1, “MINERAL ELEMENTS COMPRISING HAFNIA ALVEI COMPOSITIONS” (TARGEDYS, priority 2019, published 2022).

What was measured:
Hafnia alvei 4597 [1] = experiment: Turbidity of Hafnia alvei culture media by optical densitometry (OD at 640 nm); type: cell-based; conditions: mineral source in LB medium, monitored during 48 hours
Protocol: The concentration of the minerals were based on their estimated concentration in […] (typical glass of water). However, in view of observing the Hafnia alvei strain development, the zinc and chrome sources were solubilized in a Luria Browth medium (LB). The composition of LB is as follows: Tryptone 10 g/L, yeast extract 5 g/L (Biokar Diagnostic®) and NaCl 0.5 g/L (Fluka®).
Hafnia alvei 4597 was incubated with Test medial-6 of example 1 and the turbidity of the culture media was monitored during 48 hours by means of optical densitometry (OD at 640 nm).
(§1) The development of Hafnia alvei in this new medium was monitored by optical densitometry and flow cytometry. LB medium with no added zinc or chrome was used as a control.

Hafnia alvei 4597 [2] = experiment: Flow cytometry of cell integrity (propidium iodide and Syto 24), intact cells; type: cell-based; conditions: zinc comprising media, flow cytometry at 24 h
From the text: Samples of the culture media 1-6 were further assessed for the cell integrity by means of flow cytometry using as markers propidium iodide and Syto® 24. The flow cytometry measured the number of intact cells opposed to the population of cells whose cellular membrane integrity had been compromised.
as §1

Compound | turbidity of the culture medium (OD at 640 nm) compared to control (LB) medium (Hafnia alvei 4597 [1]) | development inhibition compared to the control medium (Hafnia alvei 4597 [2])
O=C([O-])c1ccccn1.O=C([O-])c1ccccn1.O=C([O-])c1ccccn1.[Cr+3] [Chromium picolinate, chromium (3+); pyridine-2-carboxylate] | same turbidity as the control | –
NCC(=O)[O-].NCC(=O)[O-].[Zn+2] [Zinc bisglycinate, zinc; 2-aminoacetate] | – | no significant development inhibition
